These results are taken from publication PMC5994430, “Mitochondrial Delivery of Phenol Substructure Triggers Mitochondrial Depolarization and Apoptosis of Cancer Cells” (Frontiers in Pharmacology, 2018).

Series [1] in a line: Lipophilicity, shake-flask n-octanol/PBS pH 7.4. Type of series: physicochemical. Particulars: n-octanol/50 mM PBS pH 7.4, shake-flask, room temperature, at least six measurements. The protocol:
The partition coefficient between n-octanol and PBS at pH 7.4 (log P) was obtained by shake-flask technique at room temperature. In the shake flask experiments 50 mM PBS pH 7.4 was used as aqueous phase; the organic (n-octanol) and aqueous phase (PBS) were mutually saturated by shaking for 4 h. The compounds were solubilised in the buffered aqueous phase at a concentration of 30 μg/ml and appropriate amounts of n-octanol were added. The two phases were shaken for about 20 min, by which time the partitioning equilibrium of solutes is reached, and then centrifuged (10000 rpm, 10 min). The concentration of the solutes was measured in the aqueous phase by UV spectrophotometer (UV-2501PC, Shimadzu); the values of absorbance (223, 268 and 275 nm) were interpolated in calibration curves obtained using standard solutions of compounds (concentration range 30–0.5 μg/ml; r^2 > 0.99). Each log P-value is an average of at least six measurement.

For series [2], the system named is BEAS-2B cells. Nature of the series: Cell viability (neutral red). Particulars: for cell viability: BEAS-2B, 0.1, 1 or 10 μM, 72 h; for IC50: Homo sapiens, BEAS-2B normal bronchial epithelial cells, cell viability, CompuSyn. Type of series: cell-based, Human. An excerpt:
(§1) Human colon cancer HT29 cells, colon-derived normal fibroblast CCD-18Co cells, lung cancer A549 cells, normal human bronchial epithelial (immortalized with adenovirus 12-SV40 virus hybrid Ad12SV40) BEAS-2B cells, breast cancer MDA-MB-231 cells, normal breast epithelial MCF10A cells, human osteosarcoma U-2OS cells were purchased from ATCC (Manassas, VA, United States). […] All subjects gave written informed consent in accordance with the Declaration of Helsinki. Cells were maintained in medium supplemented with 10% v/v fetal bovine serum, 1% v/v penicillin-streptomycin, 1% v/v L-glutamine. Morphological analysis was performed with a bright field microscope (Leica Microsystems, Wetzlar, Germany). At least 5 fields/experimental condition were examined.
(§2) LDH activity was measured in the extracellular medium and in the cell lysate: 50 μl of extracellular medium or 5 μl of cell lysate were incubated at 37°C with 5 mM NADH. The reaction was started by adding 20 mM pyruvic acid and was monitored for 6 min, measuring absorbance at 340 nm using a Synergy HT Multi-Detection Microplate Reader (Bio-Tek Instruments, Winoosky, MT, United States). […] Both intracellular and extracellular enzyme activities were expressed as μmol NADH oxidized/min/dish. The results were expressed as percentage of extracellular LDH versus total (intracellular plus extracellular) LDH. […] The absorbance of untreated cells was considered as 100% viability; the results were expressed as percentage of viable cells versus untreated cells. IC50 was calculated with the CompuSyn software^1.

For series [3], the system named is A549 cells. Put plainly: Cell viability (neutral red). Type of series: cell-based, Human. Particulars: for cell viability: A549, 0.1, 1 or 10 μM, 72 h; for IC50: cell viability, CompuSyn.
Description: as §1, §2

Series [4] deals with BEAS-2B cells. Nature of the series: Mitochondrial/cytosolic distribution by LC-ESI-MS. It counts as cell-based, Human. Particulars: 4 h incubation with 0.1 and 1 μM. The protocol:
(§3) Mitochondria were isolated as reported ([Riganti et al., 2013a]). To isolate mitochondrial fractions, 5 × 10^6 cells were washed twice in ice-cold PBS, then lysed in 0.5 ml buffer A (50 mM Tris, 100 mM KCl, 5 mM MgCl2, 1.8 mM ATP, 1 mM EDTA; pH 7.2), supplemented with protease inhibitor cocktail III (Calbiochem. La Jolla, CA, United States), 1 mM phenylmethylsulfonyl fluoride and 250 mM NaF. Samples were clarified by centrifuging at 650 × g for 3 min at 4°C. The supernatant was collected and centrifuged at 13,000 × g for 5 min at 4°C. This supernatant, containing the cytosolic fraction, was stored at -80°C until the use. The pellet containing mitochondria was washed in 0.5 ml buffer A and re-suspended in 0.25 ml buffer B (250 mM sucrose, 15 mM K2HPO4, 2 mM MgCl2, 0.5 mM EDTA, 5% w/v, BSA). A 50 μl aliquot was sonicated and used for the measurement of protein content or Western blotting; the remaining part was stored at -80°C until the use. To confirm the presence of mitochondrial proteins in the extracts and the absence of cytosolic contamination in the mitochondrial fraction, 10 μg of each sonicated sample were subjected to SDS–PAGE and probed with an anti-porin antibody (Abcam, Cambridge, United Kingdom), a mitochondrial marker, and with an anti-glyceraldehyde 3-phosphate dehydrogenase antibody (GAPDH; Santa Cruz Biotechnology Inc., Santa Cruz, CA, United States), a cytosolic marker. Mitochondrial extracts were used only if they had detectable levels of porin and undetectable levels of GAPDH. To exclude any mitochondrial contamination in the cytosolic extracts, the absence of porin and the presence of GAPDH in the latter was analyzed by Western blotting (Supplementary Figure S1). Nuclear proteins were extracted using the Nuclear Extract Kit (Active Motif, La Hulpe, Belgium). 10 μg of nuclear extracts were subjected to SDS–PAGE and probed with antibodies against: proliferator-activated receptor gamma coactivator 1-α (PGC-1α; Abcam), an index of increased mitochondrial biogenesis ([Buondonno et al., 2016]), or TATA box Binding Protein (TBP; Santa Cruz Biotechnology Inc.), as control of equal protein loading.
(§4) The amount of 1, 2, 15, and 16 in the mitochondrial and cytosolic fractions was determined by LC-ESI-MS analyses. LC-ESI-MS analyses were performed with an Acquity Ultra Performance LC^TM (Waters Corporation, Milford, MA, United States), equipped with BSM, SM, CM, and PDA detector. All the chromatographic separations were performed on a Zorbax Eclipse XDB-C18 (5 μm, 150 mm × 4.6 mm) (Agilent Technologies) as a stationary phase. The supernatant samples obtained from incubation were filtered through a 0.45 μm pore size PTFE membrane filter before use. Aliquots (5 μl) were injected onto the system and eluted with a mobile phase (flow rate, 0.5 ml/min) consisting of A, 0.1% formic acid solution, and B, acetonitrile. The following gradient was used: 0–5 min (A = 50%, B = 50%), 5–7 min (to A = 20%, B = 80%), 7–8 min (A = 20%, B = 80%), 8–10 min (to A = 50%, B = 50%). The eluate was injected into the electrospray ion source (ESI), and monitored using Micromass Quattro microTM API ESCi multi-mode ionization Enabled as detector. MS spectra were acquired and processed using MassLynx software. The operating conditions on the triple quadruple mass spectrometer were as follows: positive mode; drying gas (nitrogen) heated at 350°C at a flow rate of 800 l/h; nebulizer gas (nitrogen) at 80 l/h; capillary voltage in positive mode at 3000 V; cone voltage at 30 V. The molecular ion [M]^+ was employed for quantitative measurements of analytes. The values obtained from integration of the peak of compounds were interpolated in a calibration curve obtained using standard solutions at 0.01 to 5 μM. The amount of each compound in the mitochondrial and cytosolic fractions was expressed as pmol/mg proteins.
(§5) FIGURE 5 Intra-mitochondrial and cytosolic accumulation of TPP-derivatives. […]

Series [5] relates to A549 cells. Put plainly: Mitochondrial/cytosolic distribution by LC-ESI-MS. It counts as cell-based, Human. The following applies: for mitochondrial vs cytosolic distribution after incubation with 2: 4 h incubation with 0.1 and 1 μM of 2; for intracellular concentration after direct incubation / penetration into cells: A549, 4 h incubation with 0.1 and 1 μM; for cytosolic concentration of 15 after incubation with 1: cytosolic fraction; for intracellular hydrolysis of the ester to the parent phenol: 4 h incubation, 0.1 and 1 μM. The protocol:
as §3, §4, §5

For the compound `Oc1ccc(C[P+](c2ccccc2)(c2ccccc2)c2ccccc2)cc1C(F)(F)F.[Br-]` [Compound 16], in series [1], the lipophilicity (logP) was found to be 1.02. In addition, the cell viability result in the series with BEAS-2B cells [2] and in the series with A549 cells [3] was “nor reduced cell viability” each time. The “intracellular concentration after direct incubation” value in the series with BEAS-2B cells [4] and with A549 cells [5] was “very low” each time. For the same compound, the “mitochondrial vs cytosolic distribution after incubation with 2” value in the series on A549 cells [5] is on record as “accumulate almost exclusively at mitochondrial level”.

Turning to `Oc1ccc(C[P+](c2ccccc2)(c2ccccc2)c2ccccc2)cc1.[Br-]` [Compound 15], the logP in series [1] came to 0.5. The cell viability entry in the series on BEAS-2B cells [2] and in the series on A549 cells [3] was “nor reduced cell viability” each time. The “intracellular concentration after direct incubation” value with BEAS-2B cells [4] and with A549 cells [5] was “very low” each time. The “cytosolic concentration of 15 after incubation with 1” value in the series with A549 cells [5] (4 h incubation with 0.1 μM of 1) is “below detection limit”; in the series with A549 cells [5] (4 h incubation with 1 μM of 1), “very low”. Besides, in the series on A549 cells [5] (4 h incubation with 0.1 μM of 1, mitochondrial fraction), the “mitochondrial accumulation of 15 after incubation with 1” value is reported as “easily detectable”.

For the compound `CC(=O)Oc1ccc(C[P+](c2ccccc2)(c2ccccc2)c2ccccc2)cc1.[Br-]` [Compound 1], in series [1], the lipophilicity (logP) stood at 0.64. In the series on BEAS-2B cells [2], the half-maximal inhibitory concentration (IC50) was found to be 5.26 ± 0.25 µM. The “concentration in BEAS-2B cells compared with A549 cells” value in the series on BEAS-2B cells [4] was “at least ten fold lower”. For the same compound, in the series on A549 cells [5], the “intracellular hydrolysis of the ester to the parent phenol” value is on record as “fast hydrolysis into phenol 15” and the penetration into cells result was “penetrate in good extent”.

On to `O=C(Oc1ccc(C[P+](c2ccccc2)(c2ccccc2)c2ccccc2)cc1C(F)(F)F)c1ccccc1.[Br-]` [Compound 2], for which the log partition coefficient (logP) in series [1] amounted to 3.15. For the same compound, the IC50 in the series on BEAS-2B cells [2] turned out to be 7.36 ± 0.45 µM. In the series on A549 cells [3] (A549 lung cancer cells), the half-maximal inhibitory concentration (IC50) is 550 ± 70 nM. In addition, the IC50 in the series on A549 cells [3] (Homo sapiens, A549, A549 lung cancer cells) is under 1000 nM. For the same compound, the “concentration in BEAS-2B cells compared with A549 cells” value in the series on BEAS-2B cells [4] is given as “at least ten fold lower”. Also, in the series with A549 cells [5], the “mitochondrial vs cytosolic distribution after incubation with 2” value is on record as “accumulate almost exclusively at mitochondrial level”, the “intracellular hydrolysis of the ester to the parent phenol” value was “more stable with respect to acetate” and the penetration into cells result was “penetrate in good extent”.
